Drawing on patent US20220310273A1, “SYSTEM FOR EVALUATING SENSITIVITY TO ANTI-CANCER AGENT AND A COMPUTER READABLE MEDIUM STORING PROGRAMS EXECUTING AN EVALUATING METHOD” (MBD Co., Ltd., priority 2021, published 2022), this text covers IC50 value for 1 molecule.

The test system of this assay is cancer cells of biological individuals diagnosed with breast cancer. Briefly: evaluation of sensitivity to doxorubicin (DOX) in patient tissues, using cell colony growth rate and IC50 value. The settings on record: patient tissue #2 (breast cancer).

With `COc1cccc2c1C(=O)c1c(O)c3c(c(O)c1C2=O)C[C@@](O)(C(=O)CO)C[C@@H]3O[C@H]1C[C@H](N)[C@H](O)[C@H](C)O1` [doxorubicin], the IC50 value result is reported as “low”.
